Experimental data: paper PMC6757289, “Design and Characterization of SGK3-PROTAC1, an Isoform Specific SGK3 Kinase PROTAC Degrader” (ACS Chemical Biology, 2019)
Where two headings read alike, the source gives them in different places.

How the values were obtained:
Assay in all cases: kinase profiling panel
Format in all cases: biochemical
Conditions in all cases: read-out: % Activity Remaining
CHK1 = biological target: T1, CHK1 (Homo sapiens, UniProt O14757)
T1 sequence (O14757 1-476): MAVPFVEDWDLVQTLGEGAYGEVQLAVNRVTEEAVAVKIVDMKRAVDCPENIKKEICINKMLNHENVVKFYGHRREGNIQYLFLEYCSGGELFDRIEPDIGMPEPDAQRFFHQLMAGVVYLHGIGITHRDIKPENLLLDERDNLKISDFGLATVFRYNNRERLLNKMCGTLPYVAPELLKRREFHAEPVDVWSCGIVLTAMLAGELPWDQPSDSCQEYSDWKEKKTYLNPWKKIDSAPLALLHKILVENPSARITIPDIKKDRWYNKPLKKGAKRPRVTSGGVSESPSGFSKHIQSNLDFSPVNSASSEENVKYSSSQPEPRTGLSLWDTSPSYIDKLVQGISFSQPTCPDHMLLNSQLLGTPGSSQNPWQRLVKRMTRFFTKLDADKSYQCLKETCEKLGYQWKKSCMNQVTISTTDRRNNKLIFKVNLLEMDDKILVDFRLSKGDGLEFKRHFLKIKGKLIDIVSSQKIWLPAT
Description: (§1) Protein kinase profiling against a Dundee panel of 140 protein kinases was undertaken at the International Centre for Protein Kinase Profiling. The result for each kinase was presented as a mean kinase activity of the reaction taken in triplicate relative to a control sample treated with DMSO. Assay conditions and abbreviations are available at http://www.kinase-screen.mrc.ac.uk.

EF2K = EF2K (Homo sapiens, UniProt O00418)
Description: as §1

JAK2 = JAK2 (Homo sapiens, UniProt O60674)
Sequence of JAK2 (O60674 whole entry): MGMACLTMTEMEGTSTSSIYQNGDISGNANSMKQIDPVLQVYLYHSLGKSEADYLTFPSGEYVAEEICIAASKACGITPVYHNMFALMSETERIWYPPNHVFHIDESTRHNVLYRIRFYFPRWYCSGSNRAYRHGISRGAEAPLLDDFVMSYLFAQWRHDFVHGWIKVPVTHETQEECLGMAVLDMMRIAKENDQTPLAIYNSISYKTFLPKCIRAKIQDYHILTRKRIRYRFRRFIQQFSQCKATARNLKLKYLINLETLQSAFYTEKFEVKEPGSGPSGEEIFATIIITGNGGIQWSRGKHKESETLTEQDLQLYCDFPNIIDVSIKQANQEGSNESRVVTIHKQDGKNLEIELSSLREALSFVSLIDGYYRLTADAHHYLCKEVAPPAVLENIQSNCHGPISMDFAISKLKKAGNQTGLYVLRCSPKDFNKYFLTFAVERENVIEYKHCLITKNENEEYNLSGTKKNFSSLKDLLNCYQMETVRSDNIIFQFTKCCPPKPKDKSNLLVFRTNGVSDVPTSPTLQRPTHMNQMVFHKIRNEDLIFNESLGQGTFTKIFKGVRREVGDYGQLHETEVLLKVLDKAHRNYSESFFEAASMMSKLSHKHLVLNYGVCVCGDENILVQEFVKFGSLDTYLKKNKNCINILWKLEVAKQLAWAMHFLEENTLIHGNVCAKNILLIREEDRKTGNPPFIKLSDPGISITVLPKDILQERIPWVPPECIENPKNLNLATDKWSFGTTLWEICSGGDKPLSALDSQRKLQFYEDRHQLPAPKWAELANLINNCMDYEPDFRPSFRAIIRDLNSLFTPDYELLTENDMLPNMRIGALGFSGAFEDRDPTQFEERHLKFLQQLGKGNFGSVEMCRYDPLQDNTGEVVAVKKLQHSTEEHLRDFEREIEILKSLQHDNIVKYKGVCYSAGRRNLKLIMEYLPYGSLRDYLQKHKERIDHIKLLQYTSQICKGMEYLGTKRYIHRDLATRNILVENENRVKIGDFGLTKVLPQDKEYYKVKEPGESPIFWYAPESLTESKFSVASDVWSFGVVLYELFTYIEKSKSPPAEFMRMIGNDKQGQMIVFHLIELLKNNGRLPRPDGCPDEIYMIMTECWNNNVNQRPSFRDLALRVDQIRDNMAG
Description: as §1

MAPKAP-K3 = MAPKAP-K3 (Homo sapiens, UniProt Q16644)
Sequence of MAPKAP-K3 (Q16644 whole entry): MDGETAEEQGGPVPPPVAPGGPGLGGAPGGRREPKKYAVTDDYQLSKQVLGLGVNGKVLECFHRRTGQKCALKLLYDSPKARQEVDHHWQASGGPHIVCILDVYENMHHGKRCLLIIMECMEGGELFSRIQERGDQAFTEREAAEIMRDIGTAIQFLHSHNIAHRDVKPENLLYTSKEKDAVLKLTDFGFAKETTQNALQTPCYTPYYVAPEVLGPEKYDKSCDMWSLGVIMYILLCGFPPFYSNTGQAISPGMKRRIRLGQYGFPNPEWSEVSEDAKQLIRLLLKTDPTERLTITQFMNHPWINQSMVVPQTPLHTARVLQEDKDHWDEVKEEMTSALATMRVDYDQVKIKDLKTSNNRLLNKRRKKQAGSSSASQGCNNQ
Description: as §1

MARK2 = MARK2 (Homo sapiens, UniProt Q7KZI7)
Sequence of MARK2 (Q7KZI7 whole entry): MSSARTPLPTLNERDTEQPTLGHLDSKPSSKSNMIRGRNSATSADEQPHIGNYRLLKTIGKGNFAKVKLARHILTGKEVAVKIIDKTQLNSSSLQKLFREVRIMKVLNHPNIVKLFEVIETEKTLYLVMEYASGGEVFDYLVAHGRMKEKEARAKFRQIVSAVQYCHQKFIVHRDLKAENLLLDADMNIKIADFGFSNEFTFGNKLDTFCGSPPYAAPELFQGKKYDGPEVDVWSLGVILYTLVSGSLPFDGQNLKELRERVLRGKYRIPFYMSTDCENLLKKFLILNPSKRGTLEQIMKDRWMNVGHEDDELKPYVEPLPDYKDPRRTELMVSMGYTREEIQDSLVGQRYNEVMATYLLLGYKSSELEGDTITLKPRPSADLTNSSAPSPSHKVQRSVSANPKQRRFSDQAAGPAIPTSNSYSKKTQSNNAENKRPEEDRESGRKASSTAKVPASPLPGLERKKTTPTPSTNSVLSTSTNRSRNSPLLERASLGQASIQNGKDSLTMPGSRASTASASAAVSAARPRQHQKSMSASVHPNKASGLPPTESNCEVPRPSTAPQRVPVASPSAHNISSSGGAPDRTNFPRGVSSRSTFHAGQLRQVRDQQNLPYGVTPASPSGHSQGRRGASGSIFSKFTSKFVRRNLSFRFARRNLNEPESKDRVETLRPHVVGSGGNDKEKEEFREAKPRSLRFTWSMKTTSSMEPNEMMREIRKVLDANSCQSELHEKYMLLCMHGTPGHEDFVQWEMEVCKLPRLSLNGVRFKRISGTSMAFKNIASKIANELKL
Description: as §1

PDGFRA = PDGFRA (Homo sapiens, UniProt P16234)
Sequence of PDGFRA (P16234 24-1089): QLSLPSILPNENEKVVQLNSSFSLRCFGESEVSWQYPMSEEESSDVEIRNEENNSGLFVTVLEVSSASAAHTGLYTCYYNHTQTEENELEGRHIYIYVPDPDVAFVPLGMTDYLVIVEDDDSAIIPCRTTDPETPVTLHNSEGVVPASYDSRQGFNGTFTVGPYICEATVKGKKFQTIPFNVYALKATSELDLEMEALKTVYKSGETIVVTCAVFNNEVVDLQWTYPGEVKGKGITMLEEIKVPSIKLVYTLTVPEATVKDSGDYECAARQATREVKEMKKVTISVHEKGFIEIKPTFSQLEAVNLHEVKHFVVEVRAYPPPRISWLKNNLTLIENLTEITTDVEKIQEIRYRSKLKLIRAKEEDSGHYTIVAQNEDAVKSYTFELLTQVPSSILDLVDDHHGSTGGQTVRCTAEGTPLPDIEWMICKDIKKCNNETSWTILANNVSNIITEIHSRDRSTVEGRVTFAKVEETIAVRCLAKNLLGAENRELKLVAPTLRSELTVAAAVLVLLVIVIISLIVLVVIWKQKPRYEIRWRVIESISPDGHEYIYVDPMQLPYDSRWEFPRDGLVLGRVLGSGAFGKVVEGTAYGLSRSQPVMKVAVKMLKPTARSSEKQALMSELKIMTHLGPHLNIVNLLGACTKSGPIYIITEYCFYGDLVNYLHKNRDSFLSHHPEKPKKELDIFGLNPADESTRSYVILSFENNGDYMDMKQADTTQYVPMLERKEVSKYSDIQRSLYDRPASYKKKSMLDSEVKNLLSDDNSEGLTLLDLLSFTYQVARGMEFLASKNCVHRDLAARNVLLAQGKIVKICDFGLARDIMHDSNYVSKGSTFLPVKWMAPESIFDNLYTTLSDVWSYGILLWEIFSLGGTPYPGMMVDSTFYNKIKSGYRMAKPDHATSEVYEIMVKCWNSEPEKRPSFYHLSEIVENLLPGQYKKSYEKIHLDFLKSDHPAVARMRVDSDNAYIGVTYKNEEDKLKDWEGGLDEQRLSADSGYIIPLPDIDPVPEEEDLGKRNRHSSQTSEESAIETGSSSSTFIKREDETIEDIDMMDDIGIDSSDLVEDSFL
Description: as §1

PKC alpha = PKC alpha (Homo sapiens, UniProt P17252)
Description: as §1

RSK1 = RSK1 (Homo sapiens, UniProt Q15418)
Sequence of RSK1 (Q15418 whole entry): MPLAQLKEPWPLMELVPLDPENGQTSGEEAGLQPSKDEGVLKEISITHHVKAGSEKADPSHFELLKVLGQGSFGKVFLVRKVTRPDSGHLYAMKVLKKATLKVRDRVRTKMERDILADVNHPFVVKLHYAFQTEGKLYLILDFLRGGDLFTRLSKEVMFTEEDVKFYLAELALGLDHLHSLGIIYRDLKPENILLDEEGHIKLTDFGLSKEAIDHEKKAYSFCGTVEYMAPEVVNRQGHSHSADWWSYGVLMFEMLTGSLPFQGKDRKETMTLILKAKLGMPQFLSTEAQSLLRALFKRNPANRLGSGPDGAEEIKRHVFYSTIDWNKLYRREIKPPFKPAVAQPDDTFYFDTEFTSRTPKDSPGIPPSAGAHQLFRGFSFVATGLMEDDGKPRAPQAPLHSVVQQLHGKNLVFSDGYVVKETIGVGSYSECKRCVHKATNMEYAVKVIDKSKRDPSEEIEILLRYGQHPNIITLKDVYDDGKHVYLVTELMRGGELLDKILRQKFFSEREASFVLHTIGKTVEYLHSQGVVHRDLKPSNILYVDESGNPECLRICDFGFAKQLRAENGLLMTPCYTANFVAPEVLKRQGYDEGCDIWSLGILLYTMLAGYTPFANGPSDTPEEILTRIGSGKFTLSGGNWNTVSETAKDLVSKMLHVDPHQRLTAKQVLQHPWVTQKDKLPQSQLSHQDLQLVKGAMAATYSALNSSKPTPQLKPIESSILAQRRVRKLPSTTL
Description: as §1

TAO1 = biological target: T2, TAO1 (Homo sapiens, UniProt Q7L7X3)
T2 sequence (Q7L7X3 1-1001): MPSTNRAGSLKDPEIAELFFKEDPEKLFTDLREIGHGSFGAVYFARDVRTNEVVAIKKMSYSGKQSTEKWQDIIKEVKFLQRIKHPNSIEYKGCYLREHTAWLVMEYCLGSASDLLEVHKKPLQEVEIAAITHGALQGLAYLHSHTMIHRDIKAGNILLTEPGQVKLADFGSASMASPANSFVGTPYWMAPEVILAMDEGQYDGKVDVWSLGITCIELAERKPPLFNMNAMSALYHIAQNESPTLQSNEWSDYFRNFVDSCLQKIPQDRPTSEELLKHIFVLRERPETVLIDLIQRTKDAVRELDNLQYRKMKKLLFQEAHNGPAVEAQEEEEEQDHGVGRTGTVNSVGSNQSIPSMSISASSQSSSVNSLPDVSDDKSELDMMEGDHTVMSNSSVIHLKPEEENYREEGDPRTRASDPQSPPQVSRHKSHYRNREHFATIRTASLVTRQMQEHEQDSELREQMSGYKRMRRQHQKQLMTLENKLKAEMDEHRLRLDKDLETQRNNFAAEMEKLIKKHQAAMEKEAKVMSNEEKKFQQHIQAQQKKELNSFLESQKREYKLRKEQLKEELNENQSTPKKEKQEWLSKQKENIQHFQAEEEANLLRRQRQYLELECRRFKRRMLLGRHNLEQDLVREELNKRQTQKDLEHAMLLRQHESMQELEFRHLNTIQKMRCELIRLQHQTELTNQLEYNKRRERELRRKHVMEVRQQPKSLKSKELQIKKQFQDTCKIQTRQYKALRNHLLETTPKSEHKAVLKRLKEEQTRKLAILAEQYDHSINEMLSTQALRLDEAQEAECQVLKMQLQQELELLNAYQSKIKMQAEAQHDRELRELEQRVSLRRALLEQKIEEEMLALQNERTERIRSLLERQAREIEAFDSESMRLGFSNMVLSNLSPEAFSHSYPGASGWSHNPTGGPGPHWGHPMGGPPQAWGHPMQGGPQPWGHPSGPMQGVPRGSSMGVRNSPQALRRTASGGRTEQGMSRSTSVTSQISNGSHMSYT
Description: as §1

TTK = biological target: T3, TTK (Homo sapiens, UniProt P33981)
T3 sequence (P33981 1-857): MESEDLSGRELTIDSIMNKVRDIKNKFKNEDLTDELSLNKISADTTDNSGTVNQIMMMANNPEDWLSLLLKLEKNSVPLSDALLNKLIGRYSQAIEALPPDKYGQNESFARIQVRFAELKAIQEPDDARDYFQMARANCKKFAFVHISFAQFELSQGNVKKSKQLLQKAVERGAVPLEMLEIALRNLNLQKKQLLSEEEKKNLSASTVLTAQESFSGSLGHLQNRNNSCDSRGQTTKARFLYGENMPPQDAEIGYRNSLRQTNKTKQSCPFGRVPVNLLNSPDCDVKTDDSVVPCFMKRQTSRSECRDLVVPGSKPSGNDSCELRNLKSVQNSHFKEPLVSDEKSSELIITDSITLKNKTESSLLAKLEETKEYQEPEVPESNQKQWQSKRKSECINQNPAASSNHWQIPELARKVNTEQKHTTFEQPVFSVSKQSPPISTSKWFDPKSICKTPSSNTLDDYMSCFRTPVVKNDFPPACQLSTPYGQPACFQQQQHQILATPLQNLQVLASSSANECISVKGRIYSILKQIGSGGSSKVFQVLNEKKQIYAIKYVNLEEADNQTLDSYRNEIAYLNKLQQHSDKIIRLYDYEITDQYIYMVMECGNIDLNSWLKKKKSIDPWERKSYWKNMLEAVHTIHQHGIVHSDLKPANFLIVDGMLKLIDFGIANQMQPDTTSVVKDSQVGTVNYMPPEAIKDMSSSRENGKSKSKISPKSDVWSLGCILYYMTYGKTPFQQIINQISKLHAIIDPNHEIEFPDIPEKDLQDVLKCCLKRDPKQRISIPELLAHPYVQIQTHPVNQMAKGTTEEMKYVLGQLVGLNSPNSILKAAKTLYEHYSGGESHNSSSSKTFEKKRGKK
Description: as §1

Compound	remaining activity at 1 µM (CHK1; 1 µM) [%]	remaining activity at 1 µM (EF2K; 1 µM) [%]	remaining activity at 1 µM (JAK2; 1 µM) [%]	remaining activity at 1 µM (MAPKAP-K3; 1 µM) [%]	remaining activity at 1 µM (MARK2; 1 µM) [%]	remaining activity at 1 µM (PDGFRA; 1 µM) [%]	remaining activity at 1 µM (PKC alpha; 1 µM) [%]	remaining activity at 1 µM (RSK1; 1 µM) [%]	remaining activity at 1 µM (TAO1; 1 µM) [%]	remaining activity at 1 µM (TTK; 1 µM) [%]	remaining activity at 1 µM (CHK1) [%]	remaining activity at 1 µM (EF2K) [%]	remaining activity at 1 µM (JAK2) [%]	remaining activity at 1 µM (MAPKAP-K3) [%]	remaining activity at 1 µM (MARK2) [%]	remaining activity at 1 µM (PDGFRA) [%]	remaining activity at 1 µM (PKC alpha) [%]	remaining activity at 1 µM (RSK1) [%]	remaining activity at 1 µM (TAO1) [%]	remaining activity at 1 µM (TTK) [%]
Cc1ccc(F)c(S(=O)(=O)Nc2ccc(-c3nc(OC[C@H]4CN(CCCCCCOCCOCCOCC(=O)N[C@H](C(=O)N5C[C@H](O)C[C@H]5C(=O)NCc5ccc(-c6scnc6C)cc5)C(C)(C)C)CCO4)c4cn[nH]c4n3)cc2)c1 [SGK3-PROTAC1]	111	98	95	79	102	101	121	83	99	89	–	–	–	–	–	–	–	–	–	–
COc1ccc(Cl)c(S(=O)(=O)Nc2ccc(-c3nc(OC[C@H]4CNCCO4)c4c(C)n[nH]c4n3)cc2)c1 [290-R, reference compound]	–	–	–	–	–	–	–	–	–	–	95	112	112	105	113	91	113	7	110	76
Cc1ccc(F)c(S(=O)(=O)Nc2ccc(-c3nc(OC[C@H]4CN(CCCCCCOCCOCCOCC(=O)N[C@H](C(=O)N5C[C@@H](O)C[C@H]5C(=O)NCc5ccc(-c6scnc6C)cc5)C(C)(C)C)CCO4)c4cn[nH]c4n3)cc2)c1 [cisSGK3-PROTAC1]	126	105	94	77	112	95	118	90	105	99	–	–	–	–	–	–	–	–	–	–
Cc1ccc(F)c(S(=O)(=O)Nc2ccc(-c3nc(OC[C@H]4CNCCO4)c4cn[nH]c4n3)cc2)c1 [308-R, reference compound]	–	–	–	–	–	–	–	–	–	–	109	128	94	83	94	115	135	7	123	91
